{"source": "patent US20120115727A1", "about": "“CONTROL OF PHENOXYALKANOIC ACID HERBICIDE-RESISTANT WEEDS WITH 4-AMINO-3-CHLORO-6-(4-CHLORO-2-FLUORO-3-METHOXYPHENYL)PYRIDINE-2-CARBOXYLIC ACID AND ITS SALTS OR ESTERS” (DOW AGROSCIENCES LLC, priority 2010, published 2012)", "experiment_in_all_cases": "Postemergence herbicidal activity, greenhouse, visual injury", "format_in_all_cases": "in vivo, Papaver rhoeas", "details_in_all_cases": "20-22 d after application", "key": {"[1]": {"test_system": "PAPRH-S4F00101 (phenoxyalkanoic acid herbicide-resistant corn poppy)", "method": "(§1) Seeds of the phenoxyalkanoic acid herbicide-resistant and susceptible plant species were planted in Sun Gro MetroMix® 306 planting mixture, which typically has a pH of 6.0 to 6.8 and an organic matter content of about 30 percent, in plastic pots with a surface area of 103.2 square centimeters (cm^2). When required to ensure good germination and healthy plants, a fungicide treatment and/or other chemical or physical treatment was applied. The plants were grown for 7-36 days (d) in a greenhouse with an approximate 14-hour (h) photo-period which was maintained at about 18° C. during the day and 17° C. during the night. Nutrients and water were added on a regular basis and supplemental lighting was provided with overhead metal halide 1000-Watt lamps as necessary. The plants were employed for testing when they reached the second or third true leaf stage.\n(§2) Treatments consisted of the acid or esters of 4-amino-3-chloro-6-(4-chloro-2-fluoro-3-methoxyphenyl)pyridine-2-carboxylic acid (Compound I) and 2,4-D, mecoprop and 2-(4-chloro-2-methyl-phenoxy)acetic acid (MCPA) alone. Weighed amounts of the herbicides were dissolved in a volume of 97:3 volume-per-volume (v/v) acetone/dimethylsulfoxide (DMSO) to obtain concentrated solutions. […] The concentrated solutions of the test compound were diluted with the addition of an aqueous mixture containing acetone, water, isopropyl alcohol, DMSO, Agri-Dex crop oil concentrate, and Triton® X-77 surfactant in a 64.7:26.0:6.7:2.0:0.7:0.01 v/v ratio. Test compounds were diluted to the appropriate application rate with a dilution solution which was prepared by mixing the appropriate volume of 97:3 v/v acetone/DMSO and the appropriate volume of an aqueous mixture containing acetone, water, isopropyl alcohol, DMSO, Agri-Dex crop oil concentrate, and Triton® X-77 surfactant in a 64.7:26.0:6.7:2.0:0.7:0.01 v/v ratio. Compound requirements are based upon a 12 mL application volume at a rate of 187 liters per hectare (L/ha). Spray solutions of 2,4-D, mecoprop and MCPA were prepared by diluting an aliquot of the concentrated herbicide with an aqueous mixture containing 1.25% v/v Agri-Dex. 2,4-D, mecoprop and MCPA were applied at 1×, 2× and 4× of the recommended application rate.\n(§3) Formulated compounds were applied to the plant material with an overhead Mandel track sprayer equipped with 8002E nozzles calibrated to deliver 187 L/ha over an application area of 0.503 square meters (m^2) at a spray height of 18 inches (43 centimeters (cm)) above average plant canopy. Control plants were sprayed in the same manner with the solvent blank.\n(§4) The treated plants and control plants were placed in a greenhouse as described above and watered by sub-irrigation to prevent wash-off of the test compounds. After 20-22 d, the condition of the test plants as compared with that of the control plants was determined visually and scored on a scale of 0 to 100 percent where 0 corresponds to no injury and 100 corresponds to complete kill."}, "[2]": {"test_system": "PAPRH-Susceptible (susceptible corn poppy)", "method": "as §1, §2, §3, §4"}, "[3]": {"test_system": "PAPRH-S2F01502 (phenoxyalkanoic acid herbicide-resistant corn poppy)", "method": "as §1, §2, §3, §4"}, "[4]": {"test_system": "PAPRH-S4F00103 (phenoxyalkanoic acid herbicide-resistant corn poppy)", "method": "as §1, §2, §3, §4"}, "[5]": {"test_system": "PAPRH-S1F00101 (phenoxyalkanoic acid herbicide-resistant corn poppy)", "method": "as §1, §2, §3, §4"}}, "data": [{"smiles": "O=C(O)COc1ccc(Cl)cc1Cl", "note": "[2,4-D, (2,4-dichlorophenoxy)acetic acid]", "values": [{"measurement": "Activity (visual injury, 0 = no injury, 100 = complete kill) PAPRH-S4F00101", "setting": "[1]; 800 g ae/ha", "result": 22, "unit": "%"}, {"measurement": "Activity (visual injury, 0 = no injury, 100 = complete kill) PAPRH-S4F00101", "setting": "[1]; 1600 g ae/ha", "result": 42, "unit": "%"}, {"measurement": "Activity (visual injury, 0 = no injury, 100 = complete kill) PAPRH-S4F00101", "setting": "[1]; 3200 g ae/ha", "result": 33, "unit": "%"}, {"measurement": "Activity (visual injury, 0 = no injury, 100 = complete kill) PAPRH-Susceptible", "setting": "[2]; 800 g ae/ha", "result": 85, "unit": "%"}, {"measurement": "Activity (visual injury, 0 = no injury, 100 = complete kill) PAPRH-Susceptible", "setting": "[2]; 1600 g ae/ha", "result": 94, "unit": "%"}, {"measurement": "Activity (visual injury, 0 = no injury, 100 = complete kill) PAPRH-Susceptible", "setting": "[2]; 3200 g ae/ha", "result": 99, "unit": "%"}, {"measurement": "Activity (visual injury, 0 = no injury, 100 = complete kill) PAPRH-S2F01502", "setting": "[3]; 800 g ae/ha", "result": 15, "unit": "%"}, {"measurement": "Activity (visual injury, 0 = no injury, 100 = complete kill) PAPRH-S2F01502", "setting": "[3]; 1600 g ae/ha", "result": 53, "unit": "%"}, {"measurement": "Activity (visual injury, 0 = no injury, 100 = complete kill) PAPRH-S2F01502", "setting": "[3]; 3200 g ae/ha", "result": 51, "unit": "%"}, {"measurement": "Activity (visual injury, 0 = no injury, 100 = complete kill) PAPRH-S4F00103", "setting": "[4]; 800 g ae/ha", "result": 21, "unit": "%"}, {"measurement": "Activity (visual injury, 0 = no injury, 100 = complete kill) PAPRH-S4F00103", "setting": "[4]; 1600 g ae/ha", "result": 19, "unit": "%"}, {"measurement": "Activity (visual injury, 0 = no injury, 100 = complete kill) PAPRH-S4F00103", "setting": "[4]; 3200 g ae/ha", "result": 59, "unit": "%"}, {"measurement": "Activity (visual injury, 0 = no injury, 100 = complete kill) PAPRH-S1F00101", "setting": "[5]; 800 g ae/ha", "result": 21, "unit": "%"}, {"measurement": "Activity (visual injury, 0 = no injury, 100 = complete kill) PAPRH-S1F00101", "setting": "[5]; 1600 g ae/ha", "result": 16, "unit": "%"}, {"measurement": "Activity (visual injury, 0 = no injury, 100 = complete kill) PAPRH-S1F00101", "setting": "[5]; 3200 g ae/ha", "result": 50, "unit": "%"}]}, {"smiles": "COc1c(Cl)ccc(-c2cc(N)c(Cl)c(C(=O)O)n2)c1F", "note": "[Compound I, 4-amino-3-chloro-6-(4-chloro-2-fluoro-3-methoxyphenyl)pyridine-2-carboxylic acid]", "values": [{"measurement": "Activity (visual injury, 0 = no injury, 100 = complete kill) PAPRH-S4F00101", "setting": "[1]; 7.5 g ae/ha", "result": 88, "unit": "%"}, {"measurement": "Activity (visual injury, 0 = no injury, 100 = complete kill) PAPRH-S4F00101", "setting": "[1]; 10 g ae/ha", "result": 94, "unit": "%"}, {"measurement": "Activity (visual injury, 0 = no injury, 100 = complete kill) PAPRH-Susceptible", "setting": "[2]; 7.5 g ae/ha", "result": 95, "unit": "%"}, {"measurement": "Activity (visual injury, 0 = no injury, 100 = complete kill) PAPRH-Susceptible", "setting": "[2]; 10 g ae/ha", "result": 97, "unit": "%"}, {"measurement": "Activity (visual injury, 0 = no injury, 100 = complete kill) PAPRH-S2F01502", "setting": "[3]; 7.5 g ae/ha", "result": 93, "unit": "%"}, {"measurement": "Activity (visual injury, 0 = no injury, 100 = complete kill) PAPRH-S2F01502", "setting": "[3]; 10 g ae/ha", "result": 94, "unit": "%"}, {"measurement": "Activity (visual injury, 0 = no injury, 100 = complete kill) PAPRH-S4F00103", "setting": "[4]; 7.5 g ae/ha", "result": 78, "unit": "%"}, {"measurement": "Activity (visual injury, 0 = no injury, 100 = complete kill) PAPRH-S4F00103", "setting": "[4]; 10 g ae/ha", "result": 95, "unit": "%"}, {"measurement": "Activity (visual injury, 0 = no injury, 100 = complete kill) PAPRH-S1F00101", "setting": "[5]; 7.5 g ae/ha", "result": 90, "unit": "%"}, {"measurement": "Activity (visual injury, 0 = no injury, 100 = complete kill) PAPRH-S1F00101", "setting": "[5]; 10 g ae/ha", "result": 90, "unit": "%"}]}, {"smiles": "Cc1cc(Cl)ccc1OCC(=O)O", "note": "[MCPA, 2-(4-chloro-2-methyl-phenoxy)acetic acid]", "values": [{"measurement": "Activity (visual injury, 0 = no injury, 100 = complete kill) PAPRH-S4F00101", "setting": "[1]; 800 g ae/ha", "result": 28, "unit": "%"}, {"measurement": "Activity (visual injury, 0 = no injury, 100 = complete kill) PAPRH-S4F00101", "setting": "[1]; 1600 g ae/ha", "result": 37, "unit": "%"}, {"measurement": "Activity (visual injury, 0 = no injury, 100 = complete kill) PAPRH-S4F00101", "setting": "[1]; 3200 g ae/ha", "result": 60, "unit": "%"}, {"measurement": "Activity (visual injury, 0 = no injury, 100 = complete kill) PAPRH-Susceptible", "setting": "[2]; 800 g ae/ha", "result": 70, "unit": "%"}, {"measurement": "Activity (visual injury, 0 = no injury, 100 = complete kill) PAPRH-Susceptible", "setting": "[2]; 1600 g ae/ha", "result": 89, "unit": "%"}, {"measurement": "Activity (visual injury, 0 = no injury, 100 = complete kill) PAPRH-Susceptible", "setting": "[2]; 3200 g ae/ha", "result": 100, "unit": "%"}, {"measurement": "Activity (visual injury, 0 = no injury, 100 = complete kill) PAPRH-S2F01502", "setting": "[3]; 800 g ae/ha", "result": 28, "unit": "%"}, {"measurement": "Activity (visual injury, 0 = no injury, 100 = complete kill) PAPRH-S2F01502", "setting": "[3]; 1600 g ae/ha", "result": 14, "unit": "%"}, {"measurement": "Activity (visual injury, 0 = no injury, 100 = complete kill) PAPRH-S2F01502", "setting": "[3]; 3200 g ae/ha", "result": 58, "unit": "%"}, {"measurement": "Activity (visual injury, 0 = no injury, 100 = complete kill) PAPRH-S4F00103", "setting": "[4]; 800 g ae/ha", "result": 23, "unit": "%"}, {"measurement": "Activity (visual injury, 0 = no injury, 100 = complete kill) PAPRH-S4F00103", "setting": "[4]; 1600 g ae/ha", "result": 40, "unit": "%"}, {"measurement": "Activity (visual injury, 0 = no injury, 100 = complete kill) PAPRH-S4F00103", "setting": "[4]; 3200 g ae/ha", "result": 57, "unit": "%"}, {"measurement": "Activity (visual injury, 0 = no injury, 100 = complete kill) PAPRH-S1F00101", "setting": "[5]; 800 g ae/ha", "result": 14, "unit": "%"}, {"measurement": "Activity (visual injury, 0 = no injury, 100 = complete kill) PAPRH-S1F00101", "setting": "[5]; 1600 g ae/ha", "result": 23, "unit": "%"}, {"measurement": "Activity (visual injury, 0 = no injury, 100 = complete kill) PAPRH-S1F00101", "setting": "[5]; 3200 g ae/ha", "result": 57, "unit": "%"}]}]}
